Toxic doses and inconclusive results are not listed. Rule for the calls: active = survival T/C of 150% or more; inactive = T/C below 125% in these data.
Test system: CD2F1 mice, L1210 leukemia ip, survival T/C
Assay: NCI In Vivo Anticancer Drug Screen. Data for tumor model L1210 Leukemia (intraperitoneal) in CD2F1 (CDF1) mice
Conditions: higher = longer survival
Method in brief: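 Read-out first: treated-group measurement over vehicle-control measurement, expressed as a ratio. Animals bore a transplanted tumor line and were dosed with compound or vehicle.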

[1] = endpoint: mean survival time, dose: 75.0 mg/kg/injection, schedule: Q01DX001 (ip), vehicle: saline
[2] = endpoint: mean survival time, dose: 150.0 mg/kg/injection, schedule: Q01DX001 (ip), vehicle: saline

Measured: T/C

Cc1cc(C)c2nc(-c3ccc(Cl)cc3)cc(C(=O)O)c2c1
inactive: endpoint: mean survival time, dose: 100.0 mg/kg/injection, schedule: Q01DX001 (ip), vehicle: saline 96 % of control | endpoint: mean survival time, dose: 100.0 mg/kg/injection, schedule: Q04DX002 (ip), vehicle: Klucel (hydroxypropylcellulose) (HPC) 94 % of control | endpoint: mean survival time, dose: 200.0 mg/kg/injection, schedule: Q04DX002 (ip), vehicle: Klucel (hydroxypropylcellulose) (HPC) 94 % of control

CCCC/C=C/C1CCCCC1C (stereo not given)
inactive: endpoint: mean survival time, dose: 50.0 mg/kg/injection, schedule: Q01DX009 (ip), vehicle: saline with Tween-80 100 % of control | endpoint: mean survival time, dose: 100.0 mg/kg/injection, schedule: Q01DX009 (ip), vehicle: saline with Tween-80 104 % of control | endpoint: mean survival time, dose: 200.0 mg/kg/injection, schedule: Q01DX009 (ip), vehicle: saline with Tween-80 108 % of control

O=c1[nH]ncc2c(C3OC(CO)C(O)C3O)cnn12 (stereo not given)
inactive: endpoint: median survival time, dose: 4.75 mg/kg/injection, schedule: Q01DX005 (ip), vehicle: distilled water + Tween-80 109 % of control | endpoint: median survival time, dose: 9.5 mg/kg/injection, schedule: Q01DX005 (ip), vehicle: distilled water + Tween-80 100 % of control | endpoint: median survival time, dose: 19.0 mg/kg/injection, schedule: Q01DX005 (ip), vehicle: distilled water + Tween-80 106 % of control | endpoint: median survival time, dose: 38.0 mg/kg/injection, schedule: Q01DX005 (ip), vehicle: distilled water + Tween-80 102 % of control | endpoint: median survival time, dose: 76.0 mg/kg/injection, schedule: Q01DX005 (ip), vehicle: distilled water + Tween-80 98 % of control

NC(=O)c1cnn2ccn(C3OC(CO)C(O)C3O)c12 (stereo not given)
inactive: endpoint: median survival time, dose: 9.63 mg/kg/injection, schedule: Q01DX005 (ip), vehicle: water 102 % of control | endpoint: median survival time, dose: 19.25 mg/kg/injection, schedule: Q01DX005 (ip), vehicle: water 94 % of control | endpoint: median survival time, dose: 38.5 mg/kg/injection, schedule: Q01DX005 (ip), vehicle: water 104 % of control | endpoint: median survival time, dose: 77.0 mg/kg/injection, schedule: Q01DX005 (ip), vehicle: water 100 % of control | endpoint: median survival time, dose: 154.0 mg/kg/injection, schedule: Q01DX005 (ip), vehicle: water 93 % of control

CC(C)[Si]1(C(C)C)OCC2OC(c3cn(C)c(=O)n(C)c3=O)C(OC(=S)n3ccnc3)C2O[Si](C(C)C)(C(C)C)O1 (stereo not given)
inactive: endpoint: median survival time, dose: 12.5 mg/kg/injection, schedule: Q01DX005 (ip), vehicle: distilled water + Tween-80 98 % of control | endpoint: median survival time, dose: 25.0 mg/kg/injection, schedule: Q01DX005 (ip), vehicle: distilled water + Tween-80 98 % of control | endpoint: median survival time, dose: 50.0 mg/kg/injection, schedule: Q01DX005 (ip), vehicle: distilled water + Tween-80 92 % of control | endpoint: median survival time, dose: 100.0 mg/kg/injection, schedule: Q01DX005 (ip), vehicle: distilled water + Tween-80 92 % of control | endpoint: median survival time, dose: 200.0 mg/kg/injection, schedule: Q01DX005 (ip), vehicle: distilled water + Tween-80 92 % of control

O=N[O-].O=N[O-].[Co].[NH-]CC[NH-].[NH-]CC[NH-]
inactive: endpoint: mean survival time, dose: 50.0 mg/kg/injection, schedule: Q04DX002 (ip), vehicle: saline with Tween-80 93 % of control | [1] 103 % of control | endpoint: mean survival time, dose: 100.0 mg/kg/injection, schedule: Q04DX002 (ip), vehicle: saline with Tween-80 100 % of control | [2] 113 % of control | endpoint: mean survival time, dose: 200.0 mg/kg/injection, schedule: Q04DX002 (ip), vehicle: saline with Tween-80 96 % of control

O=C(CF)[O][Sb]([O]C(=O)CF)([c]1ccccc1)([c]1ccccc1)[c]1ccccc1
inactive: endpoint: mean survival time, dose: 5.0 mg/kg/injection, schedule: Q01DX009 (ip), vehicle: saline with Tween-80 105 % of control | endpoint: mean survival time, dose: 10.0 mg/kg/injection, schedule: Q01DX009 (ip), vehicle: saline with Tween-80 108 % of control

NCCCCOc1ccc([N+](=O)[O-])cc1Cl
inactive: [1] 100 % of control | [2] 102 % of control

CCOC(=O)CCCSc1nn(C2OC(COC(=O)c3ccccc3)C(OC(=O)c3ccccc3)C2OC(=O)c2ccccc2)c(=O)[nH]c1=O (stereo not given)
inactive: endpoint: mean survival time, dose: 12.5 mg/kg/injection, schedule: Q01DX005 (ip), vehicle: distilled water + Tween-80 93 % of control | endpoint: mean survival time, dose: 25.0 mg/kg/injection, schedule: Q01DX005 (ip), vehicle: distilled water + Tween-80 90 % of control | endpoint: mean survival time, dose: 50.0 mg/kg/injection, schedule: Q01DX005 (ip), vehicle: distilled water + Tween-80 93 % of control | endpoint: mean survival time, dose: 100.0 mg/kg/injection, schedule: Q01DX005 (ip), vehicle: distilled water + Tween-80 88 % of control | endpoint: mean survival time, dose: 200.0 mg/kg/injection, schedule: Q01DX005 (ip), vehicle: distilled water + Tween-80 92 % of control

N=C(N)SCCSC(=N)N
inactive: endpoint: mean survival time, dose: 25.0 mg/kg/injection, schedule: Q01DX009 (ip), vehicle: saline 92 % of control | endpoint: mean survival time, dose: 50.0 mg/kg/injection, schedule: Q01DX009 (ip), vehicle: saline 94 % of control | endpoint: mean survival time, dose: 100.0 mg/kg/injection, schedule: Q01DX009 (ip), vehicle: saline 94 % of control | endpoint: mean survival time, dose: 100.0 mg/kg/injection, schedule: Q04DX003 (ip), vehicle: saline 100 % of control | endpoint: mean survival time, dose: 200.0 mg/kg/injection, schedule: Q04DX003 (ip), vehicle: saline 105 % of control

— PubChem BioAssay AID256 (DTP/NCI, 2004)
